Assay results reported in patent US20170087120A1, “COMPOSITION FOR IMPROVING BIOAVAILBILITY AND EFFICACY OF TAXANE” (Florida A&M University, priority 2015, published 2017).

How the values were obtained:
CYP3A4 = assay: in vitro microsomal metabolism of taxane by human liver microsomes; type: in vitro ADME; settings: for metabolism of docetaxel (DTX) by human liver microsomes: PPL added in reaction mixture with DTX
Description: In FIG. 1A, in vitro microsomal metabolism studies of DTX by human liver microsomes were carried out in combination with PPL and compared with a known standard CYP3A4 inhibitor, Cyclosporin A (CYA).

Caco-2 monolayer = assay: permeability and efflux across Caco-2 monolayer; settings: co-treated with piperlongumine
Text: In FIG. 1B, Caco-2 is colon carcinoma cells used to evaluate the permeability and efflux of drug in GI track.

[1] = in vivo oral pharmacokinetic in SD rats; settings: coadministration with PPL vs DTX alone
MDA-MB-231 cell line = assay: in vitro migration assay; type: cell-based
Text: FIG. 2C depicts in vitro migration assay on MDA-MB-231 cell line.

[2] = cancer cell lines, with piperlongumine

SMILES: COc1cc(/C=C/C(=O)N2CCC=CC2=O)cc(OC)c1OC [PPL, piperlongumine]
- metabolism of docetaxel (DTX) by human liver microsomes (CYP3A4): significantly reduced
- metabolism of docetaxel (DTX) by human liver microsomes (CYP3A4; listed as Piperlongumine): reduction
- half-life of DTX (CYP3A4; human liver microsomes, PPL added in reaction mixture): doubled
- CYP3A4 inhibition (CYP3A4; human liver microsomes, compared with Cyclosporin A (CYA)): comparable to inhibitor CYA
- metabolism of paclitaxel by human microsomal enzyme (CYP3A4; with piperlongumine): reduction
- permeability co-efficient of docetaxel (Caco-2 monolayer): enhancement
- oral bioavailability of docetaxel (DTX) [1]: significant enhancement
- oral bioavailability of docetaxel (DTX) ([1]; listed as Piperlongumine): significantly enhanced
- % bridging of migration area (MDA-MB-231 cell line; MDA-MB-231 cell line): significant reduction
- anti-migration effect of docetaxel (MDA-MB-231 cell line; [2]): enhanced
- anti-migration effect of paclitaxel (MDA-MB-231 cell line; [2]): enhanced
